Data set [1] relates to ischemic reperfusion injury in mouse heart. In kind it is in vivo, C57B1/6J mice. The note with it: for myocardial infarction (infarct area / AAR): 4 h reperfusion, vehicle 16.5±1.2%. As for the experimental part: Acute GsMTx4-D treatment: All animal protocols in this study were approved by the Institutional Animal Care and Use Committee of the University at Buffalo-State University of New York. C57B1/6J mice were anesthetized with 80 mg/kg of sodium pentobarbital (Sigma, St. Louis, Mo.) via intraperitoneal injection (IP), intubated and ventilated with a respirator (Harvard apparatus, Holliston, Mass., USA) 17. Upon absence of a pedal reflex, surgery was performed under a stereomicroscope. Core body temperature was maintained at 37° C. with a heating pad. After a left lateral thoracotomy, the left anterior descending coronary artery (LAD) was occluded just underneath the left atrium for 20 min with an 8-0 nylon suture. […] A small piece of gauze was used to prevent arterial injury. After 20 min the ligature was removed and the tissue was reperfused for up to 4 h before euthanizing. Three different doses of GsMTx4-D (0.1, 1, 10 mg/kg), verapamil (0.4 mg/kg) or vehicle (saline 50 μL) were administered via tail vein injection 5 min before reperfusion (during induced ischemia). ECGs confirmed the hallmark ischemic ST segment elevation during coronary occlusion (AD Instruments, Colorado Springs, CO, USA). Each group included 5 independent experiments. At the conclusion of the study, mice were euthanized by IP injection of 270 mg/kg pentobarbital. GsMTx4-D pretreatment: To evaluate the effect of GsMTx4-D pretreatment, GsMTx4-D (50 mg/kg) or vehicle (saline 50 μL) were administered via IP injection once daily for 2 days prior to surgery. Ischemia was then elicited with the same 20 min coronary occlusion followed by 24 h reperfusion. Following reperfusion, the chest was closed in layers. A drop of lidocaine was put on the suture site and the mouse was slowly weaned off the ventilator when they resumed spontaneous breathing. The mouse was returned to its cage and kept warm and medicated for pain (buprenorphine). Each group included 5 independent experiments.
To measure infarct size, hearts were harvested and excised for dual staining at the conclusion of reperfusion. The non-necrotic tissue in the ischemic region was stained red with 2,3,5- triphenyltetrazolium (TTC) and non-ischemic regions were stained blue with Evans blue. The hearts were fixed and sectioned into 1 mm slices, photographed with a Lexica MZ95 microscope and analyzed with NIH ImageJ software (http://imagej.nih.gov/ij/) 19. The infarct size was calculated as the ratio of the percentage of myocardial necrosis to the ischemic Area At Risk (AAR).
To test whether GsMTx4-D protected the heart against reperfusion injury, we first tested three different doses of the peptide. The positive control was verapamil, a voltage-gated calcium channel inhibitor with established cardioprotective effects on IRI. C57B1/6 mice were subjected to 20 min occlusion of the LAD followed by 4 hours of reperfusion. Three different concentrations of GsMTx4-D (0.1, 1 and 10 mg/kg), verapamil (0.4 mg/kg), or vehicle (saline) were administered through tail vein injection 5 min before reperfusion. […] At the conclusion of reperfusion, the hearts were stained with TTC and Evans Blue (FIG. 2A). […] The verapamil group also had lower infarction size (14.0±0.4%), but the difference wasn't statistically significant. […] To evaluate whether pretreatment with GsMTx4-D could also protect the heart from I/R injury, GsMTx4-D (50 mg/kg) or vehicle (saline 50 μL) were administered daily via IP injection, for 2 days prior to I/R surgery. As before, ischemia was induced from 20 min LAD occlusion, but reperfusion was allowed to continue for 24 hrs. The chest was closed in layers, and animals were weaned off the ventilator when they resumed spontaneous breathing. […] The ratios of AAR to total myocardial area between the two groups were equal as determined by TTC and Evans Blue staining (FIG. 3A and B). […]

Data set [2] deals with I/R induced arrhythmias in mouse heart. Description: Heart rhythm analysis (ECG) during reperfusion, I/R induced arrhythmia. Format: in vivo, C57B1/6J mice. The note with it: for total incidence of arrhythmias (ventricular and supraventricular premature beats): vehicle 14.9±4.5; for mean heart rate during the 15 min of reperfusion: vehicle 162.9±13.2. On the procedure: During reperfusion we continuously recorded ECGs, from which mean heart rate, PR, QRS, and QT intervals were derived for each animal. We evaluated the incidence of arrhythmias by counting the incidences of arrhythmias including ventricular and supraventricular premature beats by summing the number of episodes based on limb lead recordings for 15 min after reperfusion. Ventricular premature beats are considered more severe. Each group contained 5 to 7 independent experiments (vehicle n=7, verapamil n=6, GsMTx4-D 0.1mg/kg n=5, 1 mg/kg n=6 and 10 mg/kg n=5).
Heart rate and rhythm were monitored by ECG to confirm the hallmark ischemic ST-segment elevation during coronary occlusion, and the gradually increasing inversion of the T-wave during reperfusion (FIG. 4A). Since generation of arrhythmias is a good indicator of the level of I/R damage, we counted ventricular and supraventricular premature beats occurring within 15 min of reperfusion (FIG. 4B). No ventricular tachycardia was observed during 20 min ischemia and 15 min reperfusion in the mouse heart. […] Considering that ventricular premature beats are indicative of more severe damage, the incidence of this specific arrhythmia was analyzed separately (FIG. 4 D). […] There was no difference in mean heart rate before ischemia (FIG. 4E). […] There was no difference in PR, QRS or QT intervals after treatment in all groups (data not shown).

Data set [3] in a line: Single-dose pharmacokinetic study, plasma and heart concentration by LC/MS/MS. Format: in vivo, CD-1 mice. The conditions noted are these: based on the PK analysis.

Read-outs that look alike come from different tables or passages of the source. Where a SMILES comes first, the peptide text is derived from it. Bridges are numbered along the chain shown (N, C = ends). [ ]: non-standard residue; d: D form.

`CC(C)C[C@H]1NC(=O)[C@H](NC(=O)CN)CSSC[C@H]2NC(=O)[C@H]3CSSC[C@H](C(=O)N[C@H](CC(N)=O)C(=O)N[C@H](Cc4ccccc4)C(=O)N[C@H](CO)C(=O)N[C@H](Cc4ccccc4)C(N)=O)NC(=O)[C@@H](CC(C)C)NC(=O)[C@@H](CCCCN)NC(=O)[C@@H](Cc4ccccc4)NC(=O)[C@@H](CC(C)C)NC(=O)[C@@H](CCCCN)NC(=O)[C@@H](CO)NC(=O)[C@@H](CSSC[C@@H](NC(=O)[C@@H](CCCCN)NC(=O)[C@@H](Cc4c[nH]c5ccccc45)NC(=O)[C@@H](Cc4c[nH]c5ccccc45)NC(=O)[C@@H](Cc4ccccc4)NC(=O)[C@@H](CCC(=O)O)NC1=O)C(=O)N[C@H](CC(N)=O)C(=O)N1CCC[C@@H]1C(=O)N[C@H](CC(N)=O)C(=O)N[C@H](CC(=O)O)C(=O)N[C@H](CC(=O)O)C(=O)N[C@H](CCCCN)C(=O)N3)NC(=O)[C@@H](CCCCN)NC(=O)[C@@H](CC(C)C)NC(=O)[C@@H](CCCCN)NC(=O)[C@H]1CCCN1C(=O)[C@@H](CCCNC(=N)N)NC2=O` [GsMTx4-D] (H-G[dC][dL][dE][dF][dW][dW][dK][dC][dN][dP][dN][dD][dD][dK][dC][dC][dR][dP][dK][dL][dK][dC][dS][dK][dL][dF][dK][dL][dC][dN][dF][dS][dF]-NH2; disulfide 2-17, 9-23, 16-30 (inferred); N-terminus and C-terminus assumed): the results for the “myocardial infarction (infarct area / AAR)” value in data set [1] (1.0 mg/kg tail vein 5 min before reperfusion) and in data set [1] (10 mg/kg tail vein 5 min before reperfusion) were 9.9±1.3% and 12.4±0.5%, respectively. Moreover, in data set [1] (50 mg/kg IP daily for 2 days), the side-effects from pretreatment entry is on record as “did not detect any side-effects”. Also, the “infarction size (infarct area / AAR)” value in data set [1] (50 mg/kg IP daily for 2 days prior to surgery, 24 h reperfusion, vehicle 16.8±1.1%) is 10.5±0.7%. Besides, the “death or morbidity in acute I/R treatment” value in data set [1] (0.1, 1 and 10 mg/kg tail vein injection) is given as “no death or morbidity observed”. The “toxicity in the heart during these studies” value in data set [1] (acute IV and IP pretreatment I/R studies) is “no overt signs of toxicity”. The “total incidence of arrhythmias (ventricular and supraventricular premature beats)” value was 10.4±6 incidence/15 min reperfusion in data set [2] (0.1 mg/kg IV 5 min before reperfusion, not significantly different); 2.3±0.7 incidence/15 min reperfusion in data set [2] (1 mg/kg IV 5 min before reperfusion); 2.2±1.0 incidence/15 min reperfusion in data set [2] (10 mg/kg IV 5 min before reperfusion). In addition, the “mean heart rate during the 15 min of reperfusion” value in data set [2] (1 mg/kg IV) is listed as 255.7±33.4; in data set [2] (10 mg/kg IV), 286.1±25.0. Also, the ventricular premature beats in data set [2] (1 mg/kg IV, within 15 min of reperfusion, vehicle 5.7±1.8) stood at 1.3±0.4. The “predicted concentration in the heart at the time of reperfusion” value is < 0.5 µM in data set [3] (after the 1 mg/kg IV injection during ischemia) and 1 to 2 µM in data set [3] (after two IP pretreatments (50 mg/kg)).

The record behind these values is patent publication US20170072012A1, “USE OF GSMTX4 TO REDUCE ISCHEMIA REPERFUSION INJURY” (priority 2014, published 2017).
